Data as given in the supplement of paper PMC10307832.

Columns and labels:
Test in all cases: relative viability (nuclei count vs DMSO), 5 days (fraction); higher = more cells survive
[1] = compound: CC1CC(=O)N(C2=CN=C(N=C2N1C3CCCC3)NC4=C(C=C(C=C4)C(=O)NC5CCN(CC5)C)OC)C [NPK76-II-72-1] + Nc1nc2[nH]cc(CCc3ccc(C(=O)N[C@@H](CCC(=O)O)C(=O)O)cc3)c2c(=O)[nH]1 [Pemetrexed] (partner 0.2 µM)
Outline: (§1)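 Values are medians from duplicate plates. Each reflects relative viability, defined as the nuclei count of treated wells over that of vehicle wells. Lung cancer cell lines in 1536-well plates were pin-tool dosed one day after seeding with one drug alone or with a fixed anchor-drug dose plus five library-drug doses (not always all listed) in √10 steps, then fixed, stained and imaged at 4× after 5 days.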

[2] = compound: CC1CC(=O)N(C2=CN=C(N=C2N1C3CCCC3)NC4=C(C=C(C=C4)C(=O)NC5CCN(CC5)C)OC)C [NPK76-II-72-1] + C[C@@H](Oc1cc(-c2cnn(C3CCNCC3)c2)cnc1N)c1c(Cl)ccc(F)c1Cl [Crizotinib] (partner 1 µM)
Outline: as §1

[3] = compound: CC1CC(=O)N(C2=CN=C(N=C2N1C3CCCC3)NC4=C(C=C(C=C4)C(=O)NC5CCN(CC5)C)OC)C [NPK76-II-72-1] + CCNC(=O)c1noc(-c2cc(C(C)C)c(O)cc2O)c1-c1ccc(CN2CCOCC2)cc1 [Luminespib] (partner 0.01 µM)
Outline: as §1

[4] = compound: CC[C@@H]1C(=O)N(C)c2cnc(Nc3ccc(C(=O)NC4CCN(C)CC4)cc3OC)nc2N1C1CCCC1 [BI-2536] + COc1cccc2cc(-c3nc([C@H]4CC[C@H](C(=O)O)CC4)n4ncnc(N)c34)[nH]c12 [OSI-027] (partner 0.5 µM)
Outline: as §1

| Cell Line | relative viability ([1]; first compound 0.01 µM) | relative viability ([1]; first compound 0.03162 µM) | relative viability ([1]; first compound 0.1 µM) | relative viability ([1]; first compound 0.3162 µM) | relative viability ([1]; first compound 1 µM) | relative viability ([2]; first compound 0.01 µM) | relative viability ([2]; first compound 0.03162 µM) | relative viability ([2]; first compound 0.1 µM) | relative viability ([2]; first compound 0.3162 µM) | relative viability ([2]; first compound 1 µM) | relative viability ([3]; first compound 0.01 µM) | relative viability ([3]; first compound 0.03162 µM) | relative viability ([3]; first compound 0.1 µM) | relative viability ([3]; first compound 0.3162 µM) | relative viability ([3]; first compound 1 µM) | relative viability ([4]; first compound 0.01 µM) | relative viability ([4]; first compound 0.03162 µM) | relative viability ([4]; first compound 0.1 µM) | relative viability ([4]; first compound 0.3162 µM) | relative viability ([4]; first compound 1 µM) |
| --- | --- | --- | --- | --- | --- | --- | --- | --- | --- | --- | --- | --- | --- | --- | --- | --- | --- | --- | --- | --- |
| NCI-H596 | 0.522 | 0.503 | 0.485 | 0.482 | 0.462 | 1 | 1.04 | 0.95 | 1.02 | 1.05 | 0.871 | 1.18 | 0.975 | 1.03 | 1.12 | 0.688 | 0.825 | 0.51 | 0.191 | 0.304 |
| A-427 | 0.903 | 0.991 | 0.978 | 0.965 | 1.01 | 0.798 | 0.908 | 0.907 | 0.777 | 0.969 | 0.827 | 1.06 | 0.94 | 0.905 | 1.02 | 0.464 | 0.471 | 0.251 | 0.12 | 0.119 |
| EMC-BAC-2 | 0.451 | 0.497 | 0.446 | 0.451 | 0.453 | 0.765 | 0.817 | 0.658 | 0.783 | 0.823 | 1.14 | 1.19 | 1.16 | 1.09 | 1.38 | 0.381 | 0.358 | 0.249 | 0.193 | 0.184 |
| NCI-H441 | 0.293 | 0.266 | 0.246 | 0.274 | 0.25 | 0.928 | 0.692 | 0.505 | 0.7 | 0.699 | 0.35 | 0.348 | 0.299 | 0.425 | 0.536 | 0.449 | 0.42 | 0.222 | 0.226 | 0.266 |
| LCLC-103H |  | 0.441 | 0.425 | 0.472 | 0.442 | 0.919 | 0.962 | 1.04 | 0.916 | 1.18 | 0.9 | 1.05 | 0.919 | 1.03 | 1.01 | 0.462 | 0.466 | 0.485 | 0.215 | 0.155 |
| HCC-827 | 0.293 | 0.275 | 0.302 | 0.264 | 0.278 | 1.01 | 0.912 | 0.902 | 0.895 | 0.892 | 0.602 | 0.619 | 0.447 | 0.879 | 0.702 | 0.715 | 0.752 | 0.853 | 0.285 | 0.195 |
| NCI-H1355 | 1.02 | 1 | 0.99 | 0.972 | 1.06 | 0.858 | 1.06 | 1.13 | 0.841 | 1.16 | 0.678 | 0.716 | 0.756 | 0.67 | 0.763 | 0.421 | 0.389 | 0.206 | 0.176 | 0.189 |
| NCI-H1734 | 0.428 | 0.402 | 0.413 | 0.418 | 0.416 | 0.703 | 0.666 | 0.727 | 0.642 | 0.736 | 0.167 | 0.178 | 0.189 | 0.17 | 0.186 | 0.57 | 0.494 | 0.206 | 0.179 | 0.19 |
